{"source": "patent US8513230B2", "about": "“Nuclear transport modulators and uses thereof” (Karyopharm Therapeutics, Inc., priority 2010, dated 2013)", "key": {"[1]": {"system": "MM.1S, MM.1R, Jurkat and HS-Sultan cells", "assay": "Isobologram analysis of the interaction with Bortezomib", "format": "cell-based", "method": "The MTT cell proliferation assay was used to study the cytotoxic properties of the compounds. The assay was performed according to the method described by Roche Molecular Biochemicals with minor modifications. The assay is based on the cleavage of the tetrazolium salt, MTT, in the presence of an electron-coupling reagent. The water-insoluble formazan salt produced must be solubilized in an additional step. Cells, grown in a 96-well tissue culture plate, are incubated with the MTT solution for approximately 4 hours. After this incubation period, a water-insoluble formazan dye is formed. After solubilization, the formazan dye is quantitated using a scanning multi-well spectrophotometer (ELISA reader). […] The cells were seeded at 1.5×10^4 cells in each well of 96-well plate in 200 μL of fresh culture medium and were allowed to attach for overnight. The stock solutions of the compounds were diluted in cell culture medium to obtain eight concentrations of each drug, ranging from 1 nM to 20 μM. After 72 h of treatment the medium was aspirated and the cells were washed once with sterile 1×PBS. […]\nTumor cells were assayed for viability in the absence or presence of drug/control treatments, and drug combination dose response studies were analyzed graphically by correlating the fraction of surviving cells with drug concentrations for each drug.r"}, "normal cells": {"system": "normal cells", "assay": "Cytotoxicity assay (MTS), normal cells", "format": "cell-based", "conditions": "72 hours exposure"}, "[2]": {"system": "Human myeloma cell lines (H929)", "assay": "Combination study with doxorubicin, apoptosis by anti-caspase-3 assay", "format": "cell-based", "conditions": "H929 cells, compound 16 hrs then doxorubicin 2 umol/L for 4 h", "method": "Combinations studies with doxorubicin. Human myeloma cell lines (H929) grown at 2×10^6 cells/mL (high density) were incubated with and without Example 1 for 16 h followed by doxorubicin (2 umol/L; Sigma) for 4 h and assayed for apoptosis by anti-caspase-3 assay (BD Pharmingen)."}, "[3]": {"system": "panel of ~570 solid and hematologic cancer cell lines", "assay": "Cytotoxicity assay (CellTiter 96 AQueous One Solution, MTS) in cancer cell line panel", "format": "cell-based", "conditions": "72 hours exposure, IC50 determined by MTS assay", "method": "Cytotoxicity Assay (CellTiter 96® AQueous One Solution Cell Proliferation Assay) Cells were seeded into 96-well plates and compounds at the indicated concentrations were added to the cells after overnight incubation. Seventy two hrs later the proliferation assay was done in the following way: Twenty microliters of CellTiter 96® AQueous One Solution Reagent was added into each well. After 1 hour at 37° C. in a humidified, 5% CO2 atmosphere, the absorbance at 490 nm was recorded using an ELISA plate reader. Test compound was assayed in numerous cancer cell lines using the above assay protocol. Results are depicted in FIG. 3."}, "HCT-116 xenografts": {"system": "HCT-116 xenografts", "assay": "HCT-116 xenograft growth and tolerability", "format": "in vivo", "method": "FIG. 5 presents activity data for Example 1 (KPT-127) administered at 150 mg/kg QD×7. […] HCT-116 xenografts were grown to ˜150 mm^3 and low dose KPT-0127 administered. On day 9, when the tumors were ˜350 mm^3, KPT-127 dose was escalated to 150 mg/kg sc daily. Irinotecan was used as a control."}, "MM1.S xenografts": {"system": "MM1.S xenografts", "assay": "MM1.S xenograft growth", "format": "in vivo", "method": "FIG. 4 presents activity data for Example 1 (KPT-0127) administered at 150 mg/kg QD×5. […] (A) MM1.S cells were grown as xenografts to 130 mm^3 (small) or (B) 1350 mm^3 (large) sizes and were treated with KPT-0127 SC or dexamethasone IP daily×5 and growth was assessed. Treatment of large xenografts is ongoing (data shown after 5 doses of KPT-0127)."}, "Crm1": {"target": "T1, Crm1 (Homo sapiens, UniProt O14980)", "T1 construct": "endogenous in cells; host or cells: U2OS-RevGFP cells", "T1 sequence (O14980 whole entry)": "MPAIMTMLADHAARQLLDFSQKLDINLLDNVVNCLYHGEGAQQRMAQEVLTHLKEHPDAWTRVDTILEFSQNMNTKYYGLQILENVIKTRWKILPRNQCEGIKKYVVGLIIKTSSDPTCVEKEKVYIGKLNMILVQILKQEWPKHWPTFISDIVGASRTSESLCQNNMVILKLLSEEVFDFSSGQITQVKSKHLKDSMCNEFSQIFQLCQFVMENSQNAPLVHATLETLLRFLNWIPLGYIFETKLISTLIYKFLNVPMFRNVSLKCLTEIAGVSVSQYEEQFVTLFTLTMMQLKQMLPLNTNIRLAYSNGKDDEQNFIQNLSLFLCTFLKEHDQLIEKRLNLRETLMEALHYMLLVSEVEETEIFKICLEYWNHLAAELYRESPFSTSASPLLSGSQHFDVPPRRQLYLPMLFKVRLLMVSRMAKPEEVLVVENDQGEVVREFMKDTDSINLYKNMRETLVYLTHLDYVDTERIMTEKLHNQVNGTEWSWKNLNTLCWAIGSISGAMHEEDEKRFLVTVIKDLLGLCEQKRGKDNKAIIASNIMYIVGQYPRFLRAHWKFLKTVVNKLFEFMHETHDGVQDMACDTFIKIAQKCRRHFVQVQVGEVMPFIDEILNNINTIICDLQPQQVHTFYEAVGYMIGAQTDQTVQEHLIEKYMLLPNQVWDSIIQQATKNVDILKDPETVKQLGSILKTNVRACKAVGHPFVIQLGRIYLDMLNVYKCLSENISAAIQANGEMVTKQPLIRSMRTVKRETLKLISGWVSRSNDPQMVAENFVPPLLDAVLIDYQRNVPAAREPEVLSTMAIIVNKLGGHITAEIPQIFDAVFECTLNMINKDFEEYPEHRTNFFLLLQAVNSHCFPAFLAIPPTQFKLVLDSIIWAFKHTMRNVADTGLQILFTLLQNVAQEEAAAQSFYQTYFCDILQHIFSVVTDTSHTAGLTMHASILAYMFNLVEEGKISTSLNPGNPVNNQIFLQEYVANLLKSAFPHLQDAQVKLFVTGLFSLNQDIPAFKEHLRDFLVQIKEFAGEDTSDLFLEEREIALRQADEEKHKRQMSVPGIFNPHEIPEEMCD", "assay": "Rev-GFP nuclear export inhibition assay (U2OS-RevGFP cells)", "format": "cell-based", "conditions": "~1 hr incubation with compound, read-out: Rev Export (%)/[IC50] OR Cytotoxicity[EC50]", "method": "The evaluation of the affinity of compounds for the Crm1 protein was determined in the RevGFP assay.\nExperimental protocol: Rev is a protein from human immunodeficiency virus type 1 (HIV-1) and contains a nuclear export signal (NES) in its C-terminal domain and a nuclear localization signal (NLS) in its N-terminal domain. Nuclear export of Rev protein is dependent on the classical NES/Crm1 pathway (Neville et al, 1997). Nuclear accumulation of Rev can be observed in cells treated with specific inhibitors of Crm1, such as LMB (Kau et al, 2003). In this assay, U2OS-RevGFP cells are seeded onto clear-bottom, black, 384-well plates the day before the experiment. Compounds are serially diluted 1:2 starting from 40 μM in a separate 384-well plate in DMEM, and then transferred onto cells. Cells are incubated with compound for ˜1 hr before fixation with 3.7% formaldehyde and nuclei staining with Hoechst 33258. The amount of GFP in cell nuclei will be measured and compound IC50s determined (Kau et al, 2003)."}}, "data": [{"smiles": "CC(C)OC(=O)/C=C\\n1cnc(-c2cccc(Cl)c2)n1", "note": "[Example 1, (Z)-3-[3-(3-Chloro-phenyl)-[1,2,4]-triazol-1-yl]-acrylic acid isopropyl ester]", "values": [{"measurement": "interaction with Bortezomib (isobologram analysis)", "setting": "[1]", "value": "synergistic interactions with Bortezomib"}, {"measurement": "effect on normal cells", "setting": "normal cells", "value": "minimal effect on normal cells"}, {"measurement": "sensitization to Topo II inhibitor Doxorubicin (apoptosis)", "setting": "[2]", "value": "sensitizes non-Cyclin resistant Myeloma H929 cells to Topo II inhibitor Doxorubicin"}, {"measurement": "cytotoxicity in hematologic and solid tumor cell lines", "setting": "[3]", "value": "potent and selective cytotoxicity"}, {"measurement": "growth of moderate HCT-116 xenografts", "setting": "HCT-116 xenografts; 150 mg/kg QD×7, low dose from ~150 mm^3, escalated on day 9 (~350 mm^3) to 150 mg/kg sc daily", "value": "inhibits moderate HCT-116 xenografts"}, {"measurement": "tolerability", "setting": "HCT-116 xenografts; 150 mg/kg sc daily", "value": "well tolerated"}, {"measurement": "clinical chemistries and CBCs", "setting": "HCT-116 xenografts; HCT-116 xenograft study", "value": "not significantly affected"}, {"measurement": "growth of small MM1.S xenografts", "setting": "MM1.S xenografts; 150 mg/kg QD×5 SC, xenografts grown to 130 mm^3", "value": "inhibits growth"}, {"measurement": "growth of large MM1.S xenografts", "setting": "MM1.S xenografts; 150 mg/kg SC, xenografts 1300 mm^3, data after 5 doses, treatment ongoing", "value": "inhibits growth"}]}, {"smiles": "CCOC(=O)/C=C\\n1cnc(-c2cc(F)cc(Cl)c2)n1", "note": "[Example 82, 3-[3-(3-Chloro-5-fluoro-phenyl)-[1,2,4]triazol-1-yl]-acrylic acid ethyl ester]", "values": [{"measurement": "IC50", "setting": "Crm1", "value": "1 to 10", "unit": "µM"}]}, {"smiles": "CC(C)N(C)C(=O)/C=C\\c1n[nH]c(-c2cccc(Cl)c2)n1", "note": "[Example 95, 3-[5-(3-Chloro-phenyl)-1H-[1,2,4]triazol-3-yl]-N-isopropyl-N-methyl-acrylamide]", "values": [{"measurement": "IC50", "setting": "Crm1", "value": "> 10", "unit": "µM"}]}, {"smiles": "CC(C)OC(=O)/C=C\\n1cnc(-c2cc(C(F)(F)F)cc(S(C)(=O)=O)c2)n1", "note": "[Example 67, (Z)-isopropyl 3-(3-(3-(methylsulfonyl)-5-(trifluoromethyl)phenyl)-1H-1,2,4-triazol-1-yl)acrylate]", "values": [{"measurement": "IC50", "setting": "Crm1", "value": "< 1", "unit": "µM"}]}]}
